Test results from paper PMC3813752 (PLoS ONE, 2013).
Entries after “also recorded” stand apart in the source; their conditions may differ. Read-outs that look alike come from different tables or passages of the source. Marks after values point to notes of the source that are not given here.

Legend:
human GPR18 [1] = target: T1, human GPR18 (Homo sapiens, UniProt Q14330); settings: for agonist effect on β-arrestin recruitment at GPR18: test compound 10 µM, related to effect of Δ9-THC 10 µM = 100%; for functional property at GPR18 (agonist/antagonist): in words
T1 sequence (Q14330 1-331): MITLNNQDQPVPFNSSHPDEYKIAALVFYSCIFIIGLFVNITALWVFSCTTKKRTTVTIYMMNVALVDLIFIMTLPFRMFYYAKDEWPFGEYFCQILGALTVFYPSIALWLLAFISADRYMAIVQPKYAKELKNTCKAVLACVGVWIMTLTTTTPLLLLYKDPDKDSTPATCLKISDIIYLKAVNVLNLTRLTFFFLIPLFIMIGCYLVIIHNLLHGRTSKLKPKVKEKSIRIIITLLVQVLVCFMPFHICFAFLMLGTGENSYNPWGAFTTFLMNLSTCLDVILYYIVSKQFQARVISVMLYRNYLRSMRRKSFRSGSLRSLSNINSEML

human CB1 receptor [2] = target: T2, human CB1 receptor (Homo sapiens, UniProt P21554); settings: determined at 100 µM; cited from earlier work
human GPR18 [3] = target: T1, human GPR18; experiment: cell-based; settings: for inhibition at 10 µM: CHO, read-out: % inhibition of Δ9-THC (10 µM)-induced β-arrestin recruitment at GPR18, test compound at 10 µM; for IC50: GPR18 IC50, β-arrestin recruitment, antagonist mode vs. Δ9-THC (10 µM)
human GPR55 = human GPR55 (Homo sapiens, UniProt Q9Y2T6); experiment: β-arrestin recruitment assay (PathHunter), CHO cells expressing GPR55; settings: for inhibition at 10 µM: CHO; for IC50: GPR55 IC50, β-arrestin recruitment, antagonist mode vs. LPI (1 µM); for agonist effect on β-arrestin recruitment at GPR55: test compound 10 µM, related to effect of LPI 1 µM = 100%; for functional property at GPR55 (agonist/antagonist): in words
human CB2 receptor [4] = target: T3, human CB2 receptor (Homo sapiens, UniProt P34972); experiment: Radioligand binding (heterologous competition) vs. [3H]CP55,940 at CB2
human CB2 receptor [5] = target: T3, human CB2 receptor; experiment: cAMP accumulation assay, CHO cells expressing CB2; assay type: cell-based; settings: for functional property at CB2 (agonist/antagonist): in words, standard ligands partly from the literature; for efficacy CB2, cAMP accumulation assay: at 10 µM, compared to max. effect of full agonist CP55,940 (1 µM) = 100%
human CB2 receptor [6] = target: T3, human CB2 receptor; settings: in words; cited from earlier work
human CB1 receptor [7] = target: T2, human CB1 receptor; experiment: biochemical; assay type: binding; settings: for Ki: membranes of CHO cells expressing human CB1, three independent experiments in duplicates, read-out: Ki CB1, heterologous competition vs. [3H]CP55,940
human CB1 receptor [8] = target: T2, human CB1 receptor; experiment: cAMP accumulation assay, CHO cells expressing CB1; assay type: cell-based; settings: for efficacy CB1, cAMP accumulation assay: at 10 µM, compared to max. effect of full agonist CP55,940 (1 µM) = 100%
[9] = read-out: % inhibition of LPI (1 µM)-induced β-arrestin recruitment at GPR55, test compound at 10 µM
[10] = membranes of CHO cells expressing human CB2, three independent experiments in duplicates, read-out: Ki CB2, heterologous competition vs. [3H]CP55,940

T2 sequence (P21554 whole entry): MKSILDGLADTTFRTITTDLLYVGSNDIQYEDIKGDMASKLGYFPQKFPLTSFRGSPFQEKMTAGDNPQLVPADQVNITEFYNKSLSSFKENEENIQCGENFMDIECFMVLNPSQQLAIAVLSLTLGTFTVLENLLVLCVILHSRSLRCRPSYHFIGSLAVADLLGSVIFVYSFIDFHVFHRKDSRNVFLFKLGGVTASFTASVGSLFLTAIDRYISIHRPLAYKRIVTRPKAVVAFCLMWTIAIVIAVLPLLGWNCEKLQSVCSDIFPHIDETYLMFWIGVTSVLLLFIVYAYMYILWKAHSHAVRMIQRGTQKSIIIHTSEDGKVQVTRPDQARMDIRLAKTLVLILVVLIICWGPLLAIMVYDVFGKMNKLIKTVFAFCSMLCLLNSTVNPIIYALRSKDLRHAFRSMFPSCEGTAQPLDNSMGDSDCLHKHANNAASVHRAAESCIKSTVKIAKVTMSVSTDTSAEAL
T3 sequence (P34972 whole entry): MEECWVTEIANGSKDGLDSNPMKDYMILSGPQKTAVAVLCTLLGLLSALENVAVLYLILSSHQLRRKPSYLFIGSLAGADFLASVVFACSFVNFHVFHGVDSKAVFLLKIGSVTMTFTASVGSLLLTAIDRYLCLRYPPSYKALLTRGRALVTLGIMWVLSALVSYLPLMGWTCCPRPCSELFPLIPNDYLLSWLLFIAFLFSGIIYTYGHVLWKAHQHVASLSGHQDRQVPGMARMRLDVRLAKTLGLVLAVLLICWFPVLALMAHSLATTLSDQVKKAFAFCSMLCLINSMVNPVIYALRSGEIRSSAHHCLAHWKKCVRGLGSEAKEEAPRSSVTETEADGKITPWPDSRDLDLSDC
Sequence of human GPR55 (Q9Y2T6 whole entry): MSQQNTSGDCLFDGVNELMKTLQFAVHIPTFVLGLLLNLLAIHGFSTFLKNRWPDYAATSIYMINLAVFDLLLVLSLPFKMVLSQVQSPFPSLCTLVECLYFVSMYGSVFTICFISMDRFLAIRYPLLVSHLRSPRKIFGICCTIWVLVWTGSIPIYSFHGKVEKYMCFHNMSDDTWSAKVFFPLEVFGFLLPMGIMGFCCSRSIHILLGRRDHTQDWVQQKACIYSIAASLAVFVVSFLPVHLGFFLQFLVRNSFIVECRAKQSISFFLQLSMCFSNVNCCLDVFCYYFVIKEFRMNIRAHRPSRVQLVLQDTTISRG

SMILES: C=CCc1ccc(O)c(-c2cc(CC=C)ccc2O)c1 [Compound 9, 4-allyl-2-(5-allyl-2-hydroxyphenyl)phenol, reference compound]
- agonist effect on β-arrestin recruitment at GPR18 (human GPR18 [1]): 0%
- efficacy CB1, cAMP accumulation assay (human CB1 receptor [2]): 62%
- EC50 (human GPR18 [3]): > 10 µM
- inhibition at 10 µM (human GPR18 [3]): 2%
- IC50 (human GPR18 [3]): > 10 µM
- EC50 (human GPR55): > 10 µM
- inhibition at 10 µM (human GPR55; read-out: % inhibition of LPI (1 µM)-induced β-arrestin recruitment at GPR55): 0%
- IC50 (human GPR55): > 10 µM
- agonist effect on β-arrestin recruitment at GPR55 (human GPR55): 11%

SMILES: C=CCc1ccc(O)c(-c2ccc(OC)c(CC=C)c2)c1 [Compound 11, 4′-O-Methylhonokiol, reference compound]
- Ki (human CB2 receptor [4]; Ki CB2, heterologous competition vs. [3H]CP55,940, membranes of CHO cells expressing human CB2, three independent experiments in duplicates): 0.0433 ± 0.0171 µM
- functional property at CB2 (agonist/antagonist) (human CB2 receptor [5]): agonist
- functional property at GPR18 (agonist/antagonist) (human GPR18 [1]): antagonist
- agonist effect on β-arrestin recruitment at GPR18 (human GPR18 [1]): 0%
- functional property at CB2 (human CB2 receptor [6]): inverse agonist
- EC50 (human GPR18 [3]): > 10 µM
- inhibition at 10 µM (human GPR18 [3]): 37%
- IC50 (human GPR18 [3]): > 10 µM
- EC50 (human GPR55): > 10 µM
- inhibition at 10 µM (human GPR55; [9]): 87%
- IC50 (human GPR55): 7.77 ± 0.97 µM
- functional property at GPR55 (agonist/antagonist) (human GPR55): antagonist
- agonist effect on β-arrestin recruitment at GPR55 (human GPR55): 4%

SMILES: CCCCCCc1ccc(OC)c(-c2cc(CCC)ccc2O)c1 [Compound 61b, 5′-Hexyl-2′-methoxy-5-propylbiphenyl-2-ol]
- reduction of CB1 receptor affinity compared to 61 (human CB1 receptor [7]): 2 fold
- Ki (human CB1 receptor [7]): 0.313 ± 0.125 µM
- Ki (human CB2 receptor [4]; [10]): 0.281 ± 0.101 µM
- Kb (human CB1 receptor [8]): 1.85 µM
- functional property at CB1 (agonist/antagonist) (human CB1 receptor [8]; in words, standard ligands partly from the literature): CB1-antagonistic activity; also recorded: antagonist
- EC50 (human CB2 receptor [5]): 0.595 ± 0.15 µM
- functional property at CB2 (agonist/antagonist) (human CB2 receptor [5]): partial agonistic activity; also recorded: agonist
- functional property at GPR18 (agonist/antagonist) (human GPR18 [1]): antagonist
- agonist effect on β-arrestin recruitment at GPR18 (human GPR18 [1]): 0%
- EC50 (human GPR18 [3]): > 10 µM
- inhibition at 10 µM (human GPR18 [3]): 22%
- IC50 (human GPR18 [3]): > 10 µM
- EC50 (human GPR55): > 10 µM
- inhibition at 10 µM (human GPR55; [9]): 120%
- IC50 (human GPR55): 3.25 ± 0.29 µM
- functional property at GPR55 (agonist/antagonist) (human GPR55): antagonist
- agonist effect on β-arrestin recruitment at GPR55 (human GPR55): 0%

SMILES: CCCCCCCCc1ccc(O)c(-c2cc(CCC)ccc2O)c1 [Compound 63]
- Ki (human CB1 receptor [7]): 1.66 ± 0.45 µM
- Ki (human CB2 receptor [4]; [10]): 0.955 ± 0.418 µM
- efficacy CB1, cAMP accumulation assay (human CB1 receptor [8]): (73%)^b
- efficacy CB2, cAMP accumulation assay (human CB2 receptor [5]): (52%)^b
- agonist effect on β-arrestin recruitment at GPR18 (human GPR18 [1]): 0%
- EC50 (human GPR18 [3]): > 10 µM
- inhibition at 10 µM (human GPR18 [3]): 123%
- IC50 (human GPR18 [3]): 10.7 ± 0.7 µM
- EC50 (human GPR55): > 10 µM
- inhibition at 10 µM (human GPR55; [9]): 0%
- IC50 (human GPR55): > 10 µM
- agonist effect on β-arrestin recruitment at GPR55 (human GPR55): 0%

SMILES: CCCCCc1ccc(O)c(-c2cc(CCCC)ccc2O)c1 [Compound 64]
- Ki (human CB1 receptor [7]): 3.61 ± 1.35 µM
- Ki (human CB2 receptor [4]; [10]): 0.234 ± 0.039 µM
- efficacy CB1, cAMP accumulation assay (human CB1 receptor [8]): (122%)^b
- efficacy CB2, cAMP accumulation assay (human CB2 receptor [5]): (68%)^b
- agonist effect on β-arrestin recruitment at GPR18 (human GPR18 [1]): 0%
- EC50 (human GPR18 [3]): > 10 µM
- inhibition at 10 µM (human GPR18 [3]): 94%
- IC50 (human GPR18 [3]): 13.9 ± 0.9 µM
- EC50 (human GPR55): > 10 µM
- inhibition at 10 µM (human GPR55; [9]): 21%
- IC50 (human GPR55): > 10 µM
- agonist effect on β-arrestin recruitment at GPR55 (human GPR55): 15%

SMILES: CCCCCCc1ccc(O)c(-c2cc(CCCC)ccc2O)c1 [Compound 65]
- Ki (human CB1 receptor [7]): 2.6 ± 0.09 µM
- Ki (human CB2 receptor [4]; vs. [3H]CP55,940, read-out: Ki CB2): 0.67 µM
- efficacy CB1, cAMP accumulation assay (human CB1 receptor [8]): (95%)^b
- efficacy CB2, cAMP accumulation assay (human CB2 receptor [5]): (49%)^b
- agonist effect on β-arrestin recruitment at GPR18 (human GPR18 [1]): 0%
- EC50 (human GPR18 [3]): > 10 µM
- inhibition at 10 µM (human GPR18 [3]): 116%
- IC50 (human GPR18 [3]): 11 ± 0.7 µM
- EC50 (human GPR55): > 10 µM
- inhibition at 10 µM (human GPR55; [9]): 15%
- IC50 (human GPR55): > 10 µM
- agonist effect on β-arrestin recruitment at GPR55 (human GPR55): 36%
